Data as given in the supplement of paper PMC11451515.

Test system: SEM cells
Assay: cell viability relative to DMSO control; higher = less cytotoxic
Settings: 48 h
Procedure, shortened: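 Before seeding, each leukemia line was adapted for at least four passages in each medium. NOMO1 or SEM cells (500 cells/well) and P12-Ichikawa cells (1000 cells/well) went into 1536-well plates at 5 μl, then received library compounds in DMSO by pin dosing across 11 threefold concentrations, 47 μM to 0.79 nM. Readout was CellTiter-Glo One luminescence after 48 h at 37°C, and viability is given as a per-plate percentage of DMSO wells, with cell-free wells as background.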

[1] = HPLM + 10% dialyzed FBS, 0.000781 µM
[2] = HPLM + 10% dialyzed FBS, 0.00234 µM
[3] = HPLM + 10% dialyzed FBS, 0.00702 µM
[4] = HPLM + 10% dialyzed FBS, 0.0211 µM
[5] = HPLM + 10% dialyzed FBS, 0.0632 µM
[6] = HPLM + 10% dialyzed FBS, 0.19 µM
[7] = HPLM + 10% dialyzed FBS, 0.569 µM
[8] = HPLM + 10% dialyzed FBS, 1.71 µM
[9] = HPLM + 10% dialyzed FBS, 5.12 µM
[10] = HPLM + 10% dialyzed FBS, 15.4 µM
[11] = HPLM + 10% dialyzed FBS, 46.1 µM
[12] = RPMI 5 mM glucose + 10% FBS, 0.000781 µM
[13] = RPMI 5 mM glucose + 10% FBS, 0.00234 µM
[14] = RPMI 5 mM glucose + 10% FBS, 0.00702 µM
[15] = RPMI 5 mM glucose + 10% FBS, 0.0211 µM
[16] = RPMI 5 mM glucose + 10% FBS, 0.0632 µM
[17] = RPMI 5 mM glucose + 10% FBS, 0.19 µM
[18] = RPMI 5 mM glucose + 10% FBS, 0.569 µM
[19] = RPMI 5 mM glucose + 10% FBS, 1.71 µM
[20] = RPMI 5 mM glucose + 10% FBS, 5.12 µM
[21] = RPMI 5 mM glucose + 10% FBS, 15.4 µM
[22] = RPMI 5 mM glucose + 10% FBS, 46.1 µM
[23] = RPMI 5 mM glucose + 10% dialyzed FBS, 0.000781 µM
[24] = RPMI 5 mM glucose + 10% dialyzed FBS, 0.00234 µM
[25] = RPMI 5 mM glucose + 10% dialyzed FBS, 0.00702 µM
[26] = RPMI 5 mM glucose + 10% dialyzed FBS, 0.0211 µM
[27] = RPMI 5 mM glucose + 10% dialyzed FBS, 0.0632 µM
[28] = RPMI 5 mM glucose + 10% dialyzed FBS, 0.19 µM
[29] = RPMI 5 mM glucose + 10% dialyzed FBS, 0.569 µM
[30] = RPMI 5 mM glucose + 10% dialyzed FBS, 1.71 µM
[31] = RPMI 5 mM glucose + 10% dialyzed FBS, 5.12 µM
[32] = RPMI 5 mM glucose + 10% dialyzed FBS, 15.4 µM
[33] = RPMI 5 mM glucose + 10% dialyzed FBS, 46.1 µM

SMILES	cell viability [1] [%]	cell viability [2] [%]	cell viability [3] [%]	cell viability [4] [%]	cell viability [5] [%]	cell viability [6] [%]	cell viability [7] [%]	cell viability [8] [%]	cell viability [9] [%]	cell viability [10] [%]	cell viability [11] [%]	cell viability [12] [%]	cell viability [13] [%]	cell viability [14] [%]	cell viability [15] [%]	cell viability [16] [%]	cell viability [17] [%]	cell viability [18] [%]	cell viability [19] [%]	cell viability [20] [%]	cell viability [21] [%]	cell viability [22] [%]	cell viability [23] [%]	cell viability [24] [%]	cell viability [25] [%]	cell viability [26] [%]	cell viability [27] [%]	cell viability [28] [%]	cell viability [29] [%]	cell viability [30] [%]	cell viability [31] [%]	cell viability [32] [%]	cell viability [33] [%]
CC(C)(O)C(=O)Nc1ccc([N+](=O)[O-])c(C(F)(F)F)c1	98.6	107	115	108	116	113	124	123	117	123	103	92.2	97	91.9	91.3	101	97.6	103	114	104	123	82.8	112	114	112	120	112	118	135	123	131	128	126
C[C@H](Cc1ccc(O)c(O)c1)[C@@H](C)Cc1ccc(O)c(O)c1	123	121	113	116	130	116	29	118	122	105	28.8	117	110	105	104	117	103	37.3	118	128	101	6.24	144	113	119	128	131	116	36.6	109	112	109	7.68
CC[C@H]1CN2CCc3cc(OC)c(OC)cc3[C@@H]2C[C@@H]1C[C@H]1NCCc2cc(OC)c(OC)cc21	40.6	88.1	71.5	73.9	89.7	38.6	11.8	10.1	7.04	7.04	6.06	46.7	94.3	67.6	79.9	90.9	61	14.7	11	8.47	9.05	7.9	35.8	99.2	74.9	96	113	67.8	22.2	13	9.62	9.49	8.97
CC(C)(C)OC(=O)Nc1ccc(-c2cc(C(=O)NCCCCCCC(=O)NO)no2)cc1	87.5	87.7	95.7	102	77.4	99.6	102	72.4	33.5	4.09	4.02	94.9	88.1	102	101	74.7	101	107	44.2	30.2	4.09	4.76	84.3	83.2	79.8	88.9	79.7	90.7	87.7	28.1	20.1	3.52	3.79
CS[C@H]1SC[C@@H]2C(=O)N(C)[C@H](C(C)C)C(=O)OC[C@H](NC(=O)c3cnc4ccccc4n3)C(=O)N[C@H](C)C(=O)N(C)[C@H]1C(=O)N(C)[C@H](C(C)C)C(=O)OC[C@H](NC(=O)c1cnc3ccccc3n1)C(=O)N[C@H](C)C(=O)N2C	81.1	59	37.5	14.2	7.27	7.08	7.54	7.91	7.3	6	5.18	76.5	47.9	25.6	9.07	6.95	7.44	7.22	7.34	7.64	6.82	5	66.4	44.7	34.2	11.8	7.65	8.72	8.82	8.65	8.6	7.68	5.52
CCOCC(O)COc1ccc(NC(=O)CC[S+](C)C)cc1 (stereo unspecified)	88.2	77.9	93.7	90.5	94.2	93.5	106	91.9	109	107	84.8	77.9	92.1	85.9	80.9	85.2	103	95.3	76.7	106	104	72.2	76.2	88.3	82.6	73.5	91.2	96.8	95.9	102	107	112	72.1
CCN(CC)CCCC(C)Nc1nc(C)cc(Nc2ccc3nc(C)cc(N)c3c2)n1 (stereo unspecified)	100	104	96.1	100	101	115	106	114	110	99.7	88.2	75.2	80.4	75.3	72.2	69.6	65.5	75.5	75.6	63.9	66.1	72	115	97.1	113	107	100	118	98.9	106	96.4	99.6	86.4
